Test results published in US5278324A, “Water soluble derivatives of taxol” (Virginia Tech Intellectual Properties, Inc., priority 1991, dated 1994).
Counter-ions that a name gives are not always drawn.

How the values were obtained:
[1] = Deutsch et al. 1989; cited from earlier work
[2] = cited from earlier work
[3] = Water solubility by partition between 1-octanol and water, relative to taxol; settings: for times more water soluble than taxol / solubilities greater than taxol: 1-octanol/water partition; for solubilities greater than taxol: Table 9 discussion; for water solubility (in words): versus taxol or the other derivatives
Description: Water solubilities for all compounds were determined by the partition coefficient between 1-octanol and water. Octanol saturated with distilled water and distilled water saturated with octanol were used for the solubility determinations.
Taxol's water solubility was determined by dissolving 1.6 mg of taxol in 10 ml of distilled water saturated with 1-octanol in a 60 ml separatory funnel, and 10 ml of 1-octanol saturated with distilled water was then added. The funnel was shaken, and allowed to stand for about 30 minutes until the organic and aqueous phases separated. UV absorption measurements at 228 nm were made of the aqueous layer and/or octanol layer, with the octanol layer being diluted 5 times before measurement.

[4] = system: acute leukemia and melanoma; settings: preliminary studies; cited from earlier work
[5] = system: drug-refractory ovarian cancer; settings: McGuire et al. 1989; cited from earlier work
tubulin = settings: cited from earlier work
several tumor systems = settings: background statement; cited from earlier work
[6] = cited from earlier work; remark: listed apart in the source
[7] = cited from earlier work; remark: listed apart in the source
[8] = Biological testing of 2'-[(3-sulfo-1-oxopropyl)oxy]taxol sodium salt
[9] = Stability of 2'-γ-aminobutyryltaxol formate (proton NMR and TLC); format: physicochemical; settings: after a few hours
Description: 2'-γ-aminobutyryltaxol formate was synthesized by coupling taxol with N-carbobenzyloxy (CBZ) -γ-aminobutyric acid followed by deprotection of the amine. Taxol was reacted with N-CBZ-γ- aminobutyric acid using dicyclohexyl-carbodiimide (DCC) as the coupling agent. The resulting 2'-NCBZ-γ-aminobutyryl taxol was produced in 75% yield after purification via preparative TLC with silica gel and 3/2 hexane/ethyl acetate. […] Deprotection of the 2'-N-CBZ-γ-aminobutyryltaxol was effected using 5% Pd/C as a catalyst and formic acid as a hydrogen source. […] NMR confirmed the synthesis of the 2'-γ-aminobutyryl taxol formate. […] This instability precluded further consideration of 2'-γ-amino-butyryltaxol formate as a prodrug form of taxol.

[10] = Aqueous solubility (statements in words); format: physicochemical; settings: versus the neutral form
P-388 = settings: compared with taxol; cited from earlier work
cell culture = settings: Magri and Kingston 1988; cited from earlier work
[11] = in vivo conditions; cited from earlier work
[12] = Magri and Kingston 1988; cited from earlier work
[13] = Magri and Kingston; cited from earlier work

For `CC(=O)O[C@H]1C(=O)[C@@]2(C)[C@H]([C@H](OC(=O)c3ccccc3)[C@]3(O)C[C@H](OC(=O)[C@H](OC(=O)CCCC(=O)NCCCN(C)C)[C@@H](NC(=O)c4ccccc4)c4ccccc4)C(C)=C1C3(C)C)[C@]1(OC(C)=O)CO[C@@H]1C[C@@H]2O`, which antitumor activity [1] is on record?
The antitumor activity was “good solubility and bioactivity”.

And the solubility ([2]; Deutsch et al. 1989)?
Its solubility is “good solubility”.

For `CC(=O)O[C@H]1C(=O)[C@@]2(C)[C@H]([C@H](OC(=O)c3ccccc3)[C@]3(O)C[C@H](OC(=O)[C@H](OC(=O)CCC(=O)NCCS(=O)(=O)O)[C@@H](NC(=O)c4ccccc4)c4ccccc4)C(C)=C1C3(C)C)[C@]1(OC(C)=O)CO[C@@H]1C[C@@H]2O` [2'-{[4-((2-sulfoethyl)amino)-1,4-dioxo-butyl]oxy}taxol sodium salt], which “times more water soluble than taxol” value [3] is on record?
The value was 191 times.

And the “solubilities greater than taxol” value [3]?
The value was “more than 100 times”.

What about the “water solubility (in words)” value [3] of the same molecule?
The value was “much greater water solubility than the 3-amino-1-sulfopropionic acid derivative of 2'-succinyltaxol”.

Which “Relative Solubility (water solubility relative to taxol)” value [3] does the source give for `CC(=O)O[C@H]1C(=O)[C@@]2(C)[C@H]([C@H](OC(=O)c3ccccc3)[C@]3(O)C[C@H](OC(=O)[C@H](O)[C@@H](NC(=O)c4ccccc4)c4ccccc4)C(C)=C1C3(C)C)[C@]1(OC(C)=O)CO[C@@H]1C[C@@H]2O` [Taxol, taxol] here?
Its value is 1.

What about the “activity in acute leukemia and melanoma” value [4] of the same molecule?
Its value is “marginal activity in acute leukemia and melanoma”.

What about the “activity against drug-refractory ovarian cancer” value [5] of the same molecule?
The value was “active agent against drug-refractory ovarian cancer”.

What about the “effect on microtubule formation” value (tubulin) of the same molecule?
The value was “promotes formation of the microtubules”.

What about the “effect on depolymerization of tubulin” value (tubulin; mitotic spindle microtubules) of the same molecule?
The value was “prevents depolymerization of the tubulin”.

What about the “activity in tumor systems” value (several tumor systems) of the same molecule?
The value was “has shown activity in several tumor systems”.

What about the “toxic effects in phase 1 clinical trials” value [6] of the same molecule?
The value was “did not show excessive toxic effects”.

What about the stability in base ([7]; base) of the same molecule?
The stability in base was “readily hydrolyzed in base”.

And the “water solubility of taxol” value ([2]; background statement)?
Its value is “low water solubility”.

What does the source list for `CC(=O)O[C@H]1C(=O)[C@@]2(C)[C@H]([C@H](OC(=O)c3ccccc3)[C@]3(O)C[C@H](OC(=O)[C@H](OC(=O)CCS(=O)(=O)O)[C@@H](NC(=O)c4ccccc4)c4ccccc4)C(C)=C1C3(C)C)[C@]1(OC(C)=O)CO[C@@H]1C[C@@H]2O` [2'-[(3-sulfo-1-oxopropyl)oxy]taxol sodium salt]?
times more water soluble than taxol [3]: 210 times; water solubility (in words) ([3]; listed as 2'-[(3-sulfo-l- oxopropyl)oxy]taxol sodium salt, sodium salt): improved water solubility; water solubility (in words) ([3]; listed as 2'-acryloyltaxol derivative, sodium salt): highest water solubility; bioactivity [8]: bioactive

Which “effect on microtubule formation” value (tubulin) does the source give for `CC[C@]1(O)C[C@@H]2CN(CCc3c([nH]c4ccccc34)[C@@](C(=O)OC)(c3cc4c(cc3OC)N(C)[C@H]3[C@@](O)(C(=O)OC)[C@H](OC(C)=O)[C@]5(CC)C=CCN6CC[C@]43[C@@H]65)C2)C1` [vinblastine] here?
Its value is “prevent microtubule formation”.

What does the source list for `CC(=O)O[C@H]1C(=O)[C@@]2(C)[C@H]([C@H](OC(=O)c3ccccc3)[C@]3(O)C[C@H](OC(=O)[C@H](OC(=O)CCC(=O)NCCCS(=O)(=O)O)[C@@H](NC(=O)c4ccccc4)c4ccccc4)C(C)=C1C3(C)C)[C@]1(OC(C)=O)CO[C@@H]1C[C@@H]2O` [2'-{[4-((3-sulfopropyl)-amino)-1,4-dioxobutyl]oxy}taxol sodium salt]?
times more water soluble than taxol [3]: 118 times; solubilities greater than taxol [3]: more than 100 times

Which results are given for `CC(=O)O[C@H]1C(=O)[C@@]2(C)[C@H]([C@H](OC(=O)c3ccccc3)[C@]3(O)C[C@H](OC(=O)[C@H](OC(=O)CCCN)[C@@H](NC(=O)c4ccccc4)c4ccccc4)C(C)=C1C3(C)C)[C@]1(OC(C)=O)CO[C@@H]1C[C@@H]2O` [2'-γ-aminobutyryltaxol formate, 2'-γ-amino-butyryltaxol formate]?
stability (proton NMR and TLC) [9]: decomposed back to taxol; stability in methanol solution ([9]; methanol solution): unstable in methanol solution and decomposed back to taxol after a few hours; water solubility of formate salt [10]: more water soluble than the neutral form

Which “P-388 in vivo activity” value (P-388) does the source give for `CC(=O)O[C@H]1C(=O)[C@@]2(C)[C@H]([C@H](OC(=O)c3ccccc3)[C@]3(O)C[C@H](OC(=O)[C@H](OC(=O)CCC(=O)O)[C@@H](NC(=O)c4ccccc4)c4ccccc4)C(C)=C1C3(C)C)[C@]1(OC(C)=O)CO[C@@H]1C[C@@H]2O` [2'-succinyltaxol] here?
Its value is “much diminished P-388 in vivo activity as compared with taxol”.

Which “activity in a cell culture bioassay” value (cell culture) does the source give for `CC(=O)O[C@H]1C(=O)[C@]2(C)[C@@H](OC(C)=O)C[C@H]3OC[C@@]3(OC(C)=O)[C@H]2[C@H](OC(=O)c2ccccc2)[C@]2(O)C[C@H](OC(=O)[C@H](OC(C)=O)[C@@H](NC(=O)c3ccccc3)c3ccccc3)C(C)=C1C2(C)C` [2',7-diacetyltaxol] here?
Its value is “both showed activity in a cell culture bioassay”.

And the “hydrolysis of acyl substituents at the 2' position” value [11]?
The value was “readily hydrolyzed under in vivo conditions”.

With `CC(=O)O[C@H]1C(=O)[C@@]2(C)[C@H]([C@H](OC(=O)c3ccccc3)[C@]3(O)C[C@H](OC(=O)[C@H](O[Si](C)(C)C(C)(C)C)[C@@H](NC(=O)c4ccccc4)c4ccccc4)C(C)=C1C3(C)C)[C@]1(OC(C)=O)CO[C@@H]1C[C@@H]2O` [2'-(t-butyldimethylsilyl) taxol] as the molecule, how does the biological activity [12] read?
The biological activity was “essentially inactive”.

With `CC(=O)O[C@H]1C(=O)[C@@]2(C)[C@H]([C@H](OC(=O)c3ccccc3)[C@]3(O)C[C@H](OC(=O)[C@H](OC(C)=O)[C@@H](NC(=O)c4ccccc4)c4ccccc4)C(C)=C1C3(C)C)[C@]1(OC(C)=O)CO[C@@H]1C[C@@H]2O` [2'-acetyltaxol] as the molecule, how does the “activity in a cell culture bioassay” value (cell culture) read?
The value was “both showed activity in a cell culture bioassay”.

What about the “hydrolysis of acyl substituents at the 2' position” value [11] of the same molecule?
Its value is “readily hydrolyzed under in vivo conditions”.

Which “activity in vivo and in vitro” value [13] does the source give for `CC(=O)O[C@H]1C(=O)[C@@]2(C)[C@H]([C@H](OC(=O)c3ccccc3)[C@]3(O)C[C@H](OC(=O)[C@H](OC(=O)CCN)[C@@H](NC(=O)c4ccccc4)c4ccccc4)C(C)=C1C3(C)C)[C@]1(OC(C)=O)CO[C@@H]1C[C@@H]2O` [2'-(β-alanyl)taxol] here?
Its value is “active in vivo and in vitro”.

What about the stability ([7]; Magri and Kingston) of the same molecule?
Its stability is “unstable”.
